Assay results from publication doi:10.1101/2024.08.19.608619, “Discovery of potent SARS-CoV-2 nsp3 macrodomain inhibitors uncovers lack of translation to cellular antiviral response” (bioRxiv, 2024).
Read-outs that look alike come from different tables or passages of the source.

Key:
SARS-CoV-2 nsp3-mac1 [1] = biological target: T1, SARS-CoV-2 nsp3-mac1 (Severe acute respiratory syndrome coronavirus 2, UniProt P0DTD1); test: biochemical; design: SARS-CoV-2 nsp3 macrodomain TR-FRET single point, per cent inhibition, n=2
SARS-CoV-2 nsp3-mac1 [2] = biological target: T1, SARS-CoV-2 nsp3-mac1; test: biochemical; format: biochemical; conditions: SARS-CoV-2 nsp3 macrodomain TR-FRET single point, concentration 50.0 uM

Structure (SMILES)	perc_inhibition_mean (SARS-CoV-2 nsp3-mac1 [2]) [%]	also measured
c1ccc([C@@H](CNc2ncnc3n[nH]cc23)N2CCOCC2)cc1 [ASAP-0000001]	-0.781	inhibition at 50 µM (SARS-CoV-2 nsp3-mac1 [1]; read-out: perc_inhibition_mean, batch_name=ASAP-0000001-001): -0.781%
COc1cccc(Cl)c1CNc1ncnc2[nH]ncc12 [ASAP-0000002]	-1.826	inhibition at 50 µM (SARS-CoV-2 nsp3-mac1 [1]; read-out: perc_inhibition_mean, batch_name=ASAP-0000002-001): -1.83%
c1ccc2sc(CCNc3ncnc4nc[nH]c34)nc2c1 [ASAP-0000003]	-4.211	inhibition at 50 µM (SARS-CoV-2 nsp3-mac1 [1]; read-out: perc_inhibition_mean, batch_name=ASAP-0000003-001): -4.21%
CC(C)(CCNc1ncnc2[nH]ccc12)S(C)(=O)=O [ASAP-0000004]	0.75	inhibition at 50 µM (SARS-CoV-2 nsp3-mac1 [1]; read-out: perc_inhibition_mean, batch_name=ASAP-0000004-001): 0.75%
C=CCn1c(Sc2ncnc3[nH]ccc23)nc2sccc2c1=O [ASAP-0000005]	6.305	inhibition at 50 µM (SARS-CoV-2 nsp3-mac1 [1]; read-out: perc_inhibition_mean, batch_name=ASAP-0000005-001): 6.3%
c1nc(N2CC[C@@H](n3cncn3)C2)c2cc[nH]c2n1 [ASAP-0000006]	-1.543	inhibition at 50 µM (SARS-CoV-2 nsp3-mac1 [1]; read-out: perc_inhibition_mean, batch_name=ASAP-0000006-001): -1.54%
c1ccc(CN2CCO[C@@H](CNc3ncnc4nc[nH]c34)C2)cc1 [ASAP-0000007]	-2.441	inhibition at 50 µM (SARS-CoV-2 nsp3-mac1 [1]; read-out: perc_inhibition_mean, batch_name=ASAP-0000007-001): -2.44%
CC(C)NC(=O)[C@@H]1CCCN(c2ncnc3[nH]ccc23)C1 [ASAP-0000008]	1.78	inhibition at 50 µM (SARS-CoV-2 nsp3-mac1 [1]; read-out: perc_inhibition_mean, batch_name=ASAP-0000008-001): 1.78%
c1ccc(OC[C@@H]2CCCN2c2ncnc3[nH]ccc23)cc1 [ASAP-0000009]	-0.466	inhibition at 50 µM (SARS-CoV-2 nsp3-mac1 [1]; read-out: perc_inhibition_mean, batch_name=ASAP-0000009-001): -0.466%
O=C(Nc1cnc2[nH]ncc2c1)c1noc2c1CCCC2 [ASAP-0000010]	-1.398	inhibition at 50 µM (SARS-CoV-2 nsp3-mac1 [1]; read-out: perc_inhibition_mean, batch_name=ASAP-0000010-001): -1.4%
O=S(=O)(Nc1cnc2[nH]ncc2c1)c1cnn(C2CCCC2)c1 [ASAP-0000011]	0.415	inhibition at 50 µM (SARS-CoV-2 nsp3-mac1 [1]; read-out: perc_inhibition_mean, batch_name=ASAP-0000011-001): 0.415%
O=C(Nc1cnc2[nH]ncc2c1)c1ccccc1CN1CCOCC1 [ASAP-0000012]	-3.239	inhibition at 50 µM (SARS-CoV-2 nsp3-mac1 [1]; read-out: perc_inhibition_mean, batch_name=ASAP-0000012-001): -3.24%
Cc1cnc(CCNc2ncnc3[nH]ncc23)c(C)c1 [ASAP-0000013]	4.342	inhibition at 50 µM (SARS-CoV-2 nsp3-mac1 [1]; read-out: perc_inhibition_mean, batch_name=ASAP-0000013-001): 4.34%
Cc1cccc(OCCNc2ncnc3nc[nH]c23)c1 [ASAP-0000014]	3.91	inhibition at 50 µM (SARS-CoV-2 nsp3-mac1 [1]; read-out: perc_inhibition_mean, batch_name=ASAP-0000014-001): 3.91%
Fc1ccc(OC(F)F)c(CNc2cnc3[nH]ncc3c2)c1 [ASAP-0000015]	-6.672	inhibition at 50 µM (SARS-CoV-2 nsp3-mac1 [1]; read-out: perc_inhibition_mean, batch_name=ASAP-0000015-002): -6.67%
O=C(Nc1cnc2[nH]ncc2c1)C1CCN(c2ccc3nncn3n2)CC1 [ASAP-0000016]	16.966	inhibition at 50 µM (SARS-CoV-2 nsp3-mac1 [1]; read-out: perc_inhibition_mean, batch_name=ASAP-0000016-001): 17%
NS(=O)(=O)N1CCCN(c2ncnc3[nH]c(I)cc23)CC1 [ASAP-0000017]	2.291	inhibition at 50 µM (SARS-CoV-2 nsp3-mac1 [1]; read-out: perc_inhibition_mean, batch_name=ASAP-0000017-001): 2.29%
Cc1ccc(S(=O)(=O)Nc2ccccc2F)cc1C(=O)Nc1cnc2[nH]ncc2c1 [ASAP-0000018]	0.764	inhibition at 50 µM (SARS-CoV-2 nsp3-mac1 [1]; read-out: perc_inhibition_mean, batch_name=ASAP-0000018-001): 0.764%
CNC(=O)c1cccc(CNC(=O)c2ncnc3[nH]ccc23)c1 [ASAP-0000019]	-5.906	inhibition at 50 µM (SARS-CoV-2 nsp3-mac1 [1]; read-out: perc_inhibition_mean, batch_name=ASAP-0000019-001): -5.91%
Cc1[nH]c2ncnc(NC(=O)C3CCC(F)(F)CC3)c2c1C [ASAP-0000020]	2.148	inhibition at 50 µM (SARS-CoV-2 nsp3-mac1 [1]; read-out: perc_inhibition_mean, batch_name=ASAP-0000020-001): 2.15%
Fc1ccc(Oc2cc(CNc3ncnc4nc[nH]c34)ccn2)cc1 [ASAP-0000021]	2.011	inhibition at 50 µM (SARS-CoV-2 nsp3-mac1 [1]; read-out: perc_inhibition_mean, batch_name=ASAP-0000021-001): 2.01%
c1cc(CNc2cnc3[nH]ncc3c2)cc(-c2ccncc2)c1 [ASAP-0000022]	-17.179	inhibition at 50 µM (SARS-CoV-2 nsp3-mac1 [1]; read-out: perc_inhibition_mean, batch_name=ASAP-0000022-001): -17.2%
O=C(Nc1cnc2[nH]ncc2c1)c1ccc(Oc2cccc(Br)c2)nc1 [ASAP-0000023]	-0.183	inhibition at 50 µM (SARS-CoV-2 nsp3-mac1 [1]; read-out: perc_inhibition_mean, batch_name=ASAP-0000023-001): -0.183%
C#Cc1cccc(NC(=O)CN(C)c2ncnc3[nH]ccc23)c1 [ASAP-0000024]	4.398	inhibition at 50 µM (SARS-CoV-2 nsp3-mac1 [1]; read-out: perc_inhibition_mean, batch_name=ASAP-0000024-001): 4.4%
CN(CCOc1ccccc1)c1ncnc2[nH]ccc12 [ASAP-0000026]	-2.258	inhibition at 50 µM (SARS-CoV-2 nsp3-mac1 [1]; read-out: perc_inhibition_mean, batch_name=ASAP-0000026-001): -2.26%

Structure (SMILES)	perc_inhibition_mean (SARS-CoV-2 nsp3-mac1 [2]) [%]	also measured
Cc1[nH]c2ncnc(NC(=O)c3ncn(-c4ccccc4)n3)c2c1C [ASAP-0000027]	7.104	inhibition at 50 µM (SARS-CoV-2 nsp3-mac1 [1]; read-out: perc_inhibition_mean, batch_name=ASAP-0000027-001): 7.1%
COc1cccc2cc(CNc3cnc4[nH]ncc4c3)oc12 [ASAP-0000028]	-4.293	inhibition at 50 µM (SARS-CoV-2 nsp3-mac1 [1]; read-out: perc_inhibition_mean, batch_name=ASAP-0000028-001): -4.29%
COc1cc(CNc2cnc3[nH]ncc3c2)ccc1Cl [ASAP-0000029]	-2.794	inhibition at 50 µM (SARS-CoV-2 nsp3-mac1 [1]; read-out: perc_inhibition_mean, batch_name=ASAP-0000029-001): -2.79%
FC(F)(F)c1ccccc1[C@@H]1CN(c2ncnc3[nH]ccc23)CCO1 [ASAP-0000030]	-5.311	inhibition at 50 µM (SARS-CoV-2 nsp3-mac1 [1]; read-out: perc_inhibition_mean, batch_name=ASAP-0000030-001): -5.31%
O=C(Cc1ccc(F)cc1)Nc1ccc2[nH]ncc2c1 [ASAP-0000032]	1.139	inhibition at 50 µM (SARS-CoV-2 nsp3-mac1 [1]; read-out: perc_inhibition_mean, batch_name=ASAP-0000032-001): 1.14%
CC(C)(c1noc(-c2ncnc3[nH]ccc23)n1)S(C)(=O)=O [ASAP-0000033]	-0.756	inhibition at 50 µM (SARS-CoV-2 nsp3-mac1 [1]; read-out: perc_inhibition_mean, batch_name=ASAP-0000033-001): -0.756%
O=C(CNc1ncnc2[nH]ccc12)N1CCc2ccccc21 [ASAP-0000034]	1.193	inhibition at 50 µM (SARS-CoV-2 nsp3-mac1 [1]; read-out: perc_inhibition_mean, batch_name=ASAP-0000034-001): 1.19%
CN1CCOc2cccc(NC(=O)Nc3cnc4[nH]ncc4c3)c21 [ASAP-0000035]	-6.537	inhibition at 50 µM (SARS-CoV-2 nsp3-mac1 [1]; read-out: perc_inhibition_mean, batch_name=ASAP-0000035-001): -6.54%
c1ccc2sc(CNc3ncnc4[nH]ccc34)nc2c1 [ASAP-0000036]	-0.671	inhibition at 50 µM (SARS-CoV-2 nsp3-mac1 [1]; read-out: perc_inhibition_mean, batch_name=ASAP-0000036-001): -0.671%
O=C1CN(c2ccc(Nc3ncnc4[nH]ccc34)cn2)CCN1 [ASAP-0000037]	-16.793	inhibition at 50 µM (SARS-CoV-2 nsp3-mac1 [1]; read-out: perc_inhibition_mean, batch_name=ASAP-0000037-001): -16.8%
Cc1cccc2oc(CCNc3ncnc4[nH]ccc34)nc12 [ASAP-0000038]	-3.259	inhibition at 50 µM (SARS-CoV-2 nsp3-mac1 [1]; read-out: perc_inhibition_mean, batch_name=ASAP-0000038-001): -3.26%
O=C(OCC(Br)=C1CCOCC1)c1ncnc2[nH]ccc12 [ASAP-0000039]	-5.359	inhibition at 50 µM (SARS-CoV-2 nsp3-mac1 [1]; read-out: perc_inhibition_mean, batch_name=ASAP-0000039-001): -5.36%
CS(=O)(=O)N1CC[C@@H](COC(=O)c2ncnc3[nH]ccc23)C1 [ASAP-0000040]	0.187	inhibition at 50 µM (SARS-CoV-2 nsp3-mac1 [1]; read-out: perc_inhibition_mean, batch_name=ASAP-0000040-001): 0.187%
Cc1nc(C)c(CC(=O)Nc2cnc3[nH]ncc3c2)c(=O)[nH]1 [ASAP-0000041]	4.825	inhibition at 50 µM (SARS-CoV-2 nsp3-mac1 [1]; read-out: perc_inhibition_mean, batch_name=ASAP-0000041-001): 4.83%
O=C(Cc1n[nH]c2c1CCCC2)Nc1cnc2[nH]ncc2c1 [ASAP-0000042]	-1.262	inhibition at 50 µM (SARS-CoV-2 nsp3-mac1 [1]; read-out: perc_inhibition_mean, batch_name=ASAP-0000042-001): -1.26%
Cc1noc([C@@H]2CCCN(c3ncnc4[nH]ccc34)C2)n1 [ASAP-0000043]	1.916	inhibition at 50 µM (SARS-CoV-2 nsp3-mac1 [1]; read-out: perc_inhibition_mean, batch_name=ASAP-0000043-001): 1.92%
NC(=O)c1ccccc1NC(=O)c1ncnc2[nH]ccc12 [ASAP-0000044]	-2.586	inhibition at 50 µM (SARS-CoV-2 nsp3-mac1 [1]; read-out: perc_inhibition_mean, batch_name=ASAP-0000044-001): -2.59%
OC[C@@H]1CN(c2ncnc3nc[nH]c23)CCC1(F)F [ASAP-0000045]	1.75	inhibition at 50 µM (SARS-CoV-2 nsp3-mac1 [1]; read-out: perc_inhibition_mean, batch_name=ASAP-0000045-001): 1.75%
Cc1nc(Nc2cnn(CCO)c2)c2cc[nH]c2n1 [ASAP-0000046]	-6.147	inhibition at 50 µM (SARS-CoV-2 nsp3-mac1 [1]; read-out: perc_inhibition_mean, batch_name=ASAP-0000046-001): -6.15%
OCc1cn([C@@H]2CCCN(c3ncnc4[nH]ccc34)C2)nn1 [ASAP-0000047]	-0.682	inhibition at 50 µM (SARS-CoV-2 nsp3-mac1 [1]; read-out: perc_inhibition_mean, batch_name=ASAP-0000047-001): -0.682%
C=CCn1c(Cc2ccccc2)nnc1Sc1ncnc2[nH]ccc12 [ASAP-0000048]	-7.711	inhibition at 50 µM (SARS-CoV-2 nsp3-mac1 [1]; read-out: perc_inhibition_mean, batch_name=ASAP-0000048-001): -7.71%
Fc1ccc(F)c(Sc2ncnc3[nH]ccc23)c1 [ASAP-0000049]	-1.149	inhibition at 50 µM (SARS-CoV-2 nsp3-mac1 [1]; read-out: perc_inhibition_mean, batch_name=ASAP-0000049-001): -1.15%
Cc1ccnc(C2CCN(c3ncnc4[nH]ccc34)CC2)n1 [ASAP-0000050]	3.465	inhibition at 50 µM (SARS-CoV-2 nsp3-mac1 [1]; read-out: perc_inhibition_mean, batch_name=ASAP-0000050-001): 3.46%
O=S1(=O)CCC[C@@H](CNc2ncnc3n[nH]cc23)C1 [ASAP-0000051]	4.593	inhibition at 50 µM (SARS-CoV-2 nsp3-mac1 [1]; read-out: perc_inhibition_mean, batch_name=ASAP-0000051-001): 4.59%
Cc1cccc(C)c1-n1nnnc1CSc1ncnc2[nH]cnc12 [ASAP-0000052]	6.631	inhibition at 50 µM (SARS-CoV-2 nsp3-mac1 [1]; read-out: perc_inhibition_mean, batch_name=ASAP-0000052-001): 6.63%
